In ChEMBL document CHEMBL1134339, “New 1-aryl-3-(4-arylpiperazin-1-yl)propane derivatives, with dual action at 5-HT1A serotonin receptors and serotonin transporter, as a new class of antidepressants” (J Med Chem, 2001):
pKi: −log10 of the molar value.

Legend:
[1] = molecular target: T1, 5-hydroxytryptamine receptor 1A (Rattus norvegicus, UniProt P19327); assay: Binding affinity to 5-hydroxytryptamine 1A receptor (5-HT 1A receptor, serotonin receptor) from rat cortex using [3H]8-OH-DPAT as radioligand
T1 sequence (P19327 whole entry): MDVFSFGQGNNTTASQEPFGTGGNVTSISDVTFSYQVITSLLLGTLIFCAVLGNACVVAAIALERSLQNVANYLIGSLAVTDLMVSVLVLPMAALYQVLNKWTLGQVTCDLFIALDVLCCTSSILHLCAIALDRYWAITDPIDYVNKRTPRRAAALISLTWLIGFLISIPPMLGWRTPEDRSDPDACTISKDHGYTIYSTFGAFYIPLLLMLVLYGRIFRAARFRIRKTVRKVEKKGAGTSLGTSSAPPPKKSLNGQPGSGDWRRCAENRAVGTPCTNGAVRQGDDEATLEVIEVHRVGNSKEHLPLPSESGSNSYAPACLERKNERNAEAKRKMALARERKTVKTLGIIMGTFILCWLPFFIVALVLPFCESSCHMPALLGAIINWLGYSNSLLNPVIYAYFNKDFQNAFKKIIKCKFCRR

[2] = molecular target: Sodium-dependent serotonin transporter (Rattus norvegicus, UniProt P31652); assay: Binding affinity towards Serotonin transporter from rat cortex measured using [3H]paroxetine
Sodium-dependent serotonin transporter, sequence (P31652 whole entry): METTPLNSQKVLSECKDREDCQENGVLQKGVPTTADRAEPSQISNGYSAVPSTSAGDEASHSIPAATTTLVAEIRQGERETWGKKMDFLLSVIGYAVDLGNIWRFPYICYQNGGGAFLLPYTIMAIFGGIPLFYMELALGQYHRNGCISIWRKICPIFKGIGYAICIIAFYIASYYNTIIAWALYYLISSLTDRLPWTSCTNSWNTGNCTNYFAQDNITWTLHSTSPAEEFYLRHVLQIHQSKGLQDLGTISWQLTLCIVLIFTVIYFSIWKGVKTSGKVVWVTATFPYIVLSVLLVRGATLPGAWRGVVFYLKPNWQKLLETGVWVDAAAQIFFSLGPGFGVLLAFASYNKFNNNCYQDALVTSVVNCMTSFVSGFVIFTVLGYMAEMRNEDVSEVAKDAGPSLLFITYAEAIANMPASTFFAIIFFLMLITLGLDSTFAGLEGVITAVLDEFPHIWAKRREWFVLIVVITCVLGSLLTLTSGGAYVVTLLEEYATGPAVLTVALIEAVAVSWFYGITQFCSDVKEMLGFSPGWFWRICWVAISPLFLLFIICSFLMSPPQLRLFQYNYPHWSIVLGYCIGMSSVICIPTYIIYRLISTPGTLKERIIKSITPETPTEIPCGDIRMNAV

[3] = tested on: Mus musculus; assay: Time-dependent effect on 8-OH-DPAT-induced hypothermia (change in body temperature) after 60 min, in mice at 0.5 mg/kg dose; type: functional
[4] = tested on: Mus musculus; assay: Time-dependent effect on 8-OH-DPAT-induced hypothermia (change in body temperature) after 15 min, in mice at 0.5 mg/kg dose; type: functional
[5] = tested on: Mus musculus; assay: Antidepressant-like activity in the forced swimming test (FST) in mice at 0.1 mg/kg dose; Antidepressant like activity; type: functional
[6] = tested on: Mus musculus; assay: Antidepressant-like activity in the forced swimming test (FST) in mice at 1 mg/kg dose; Antidepressant like activity; type: functional
[7] = tested on: Mus musculus; assay: Time-dependent effect on 8-OH-DPAT-induced hypothermia (change in body temperature) after 15 min, in mice at 5 mg/kg dose; type: functional
[8] = tested on: Mus musculus; assay: Effect on immobility time in the forced swimming test (FST) in mice at 1 mg/kg dose; type: functional
[9] = tested on: Mus musculus; assay: Time-dependent effect on 8-OH-DPAT-induced hypothermia (change in body temperature) after 30 min, in mice at 5 mg/kg dose; type: functional
[10] = tested on: Mus musculus; assay: Time-dependent effect on 8-OH-DPAT-induced hypothermia (change in body temperature) after 30 min, in mice at 0.5 mg/kg dose; type: functional
[11] = tested on: Mus musculus; assay: Antidepressant-like activity in the forced swimming test (FST) in mice at 10 mg/kg dose; Antidepressant like activity; type: functional
[12] = tested on: Mus musculus; assay: Time-dependent effect on 8-OH-DPAT-induced hypothermia (change in body temperature) after 60 min, in mice at 5 mg/kg dose; type: functional
[13] = tested on: Mus musculus; assay: Effect on immobility time in the forced swimming test (FST) in mice at 10 mg/kg dose; type: functional
[14] = tested on: Mus musculus; assay: Effect on immobility time in the forced swimming test (FST) in mice at 0 mg/kg dose; type: functional
[15] = tested on: Mus musculus; assay: Effect on immobility time in the forced swimming test (FST) in mice at mg/kg dose; type: functional
[16] = tested on: Mus musculus; assay: Effect on immobility time in the forced swimming test (FST) in mice at 0.1 mg/kg dose; type: functional
[17] = molecular target: T2, 5-hydroxytryptamine receptor 1A (Homo sapiens) (UniProt P08908); assay: Percent increase in the Forskolin-Stimulated cAMP formation, in HeLa cells transfected with the 5-HT 1A receptor at 10 uM concentration; type: functional, cell-based
T2 sequence (whole entry): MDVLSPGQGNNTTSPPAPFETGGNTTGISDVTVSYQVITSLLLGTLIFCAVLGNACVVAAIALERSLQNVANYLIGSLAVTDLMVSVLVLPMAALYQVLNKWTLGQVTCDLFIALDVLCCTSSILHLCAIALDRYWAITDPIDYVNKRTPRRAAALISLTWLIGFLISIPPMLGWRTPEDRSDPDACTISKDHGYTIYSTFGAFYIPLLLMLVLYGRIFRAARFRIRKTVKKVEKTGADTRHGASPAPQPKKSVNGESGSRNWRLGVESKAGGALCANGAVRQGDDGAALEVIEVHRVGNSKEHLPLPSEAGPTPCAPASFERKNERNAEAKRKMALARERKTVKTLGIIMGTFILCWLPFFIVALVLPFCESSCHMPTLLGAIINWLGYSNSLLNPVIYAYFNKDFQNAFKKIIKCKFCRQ

[18] = molecular target: T2, 5-hydroxytryptamine receptor 1A (Homo sapiens); assay: Effect on Forskolin-Stimulated cAMP formation, in HeLa cells transfected with the 5-HT 1A receptor at 10 uM concentration; type: functional, cell-based
[19] = molecular target: T2, 5-hydroxytryptamine receptor 1A (Homo sapiens); assay: Percent increase in the Forskolin-Stimulated cAMP formation, in HeLa cells transfected with the 5-HT 1A receptor [compound (1 uM)]; type: functional, cell-based
[20] = molecular target: T2, 5-hydroxytryptamine receptor 1A (Homo sapiens); conditions: HeLa
Description: Effect on Forskolin-Stimulated cAMP formation, in HeLa cells transfected with the 5-HT 1A receptor at 1 uM concentration

[21] = molecular target: T2, 5-hydroxytryptamine receptor 1A (Homo sapiens); conditions: HeLa; remark: listed apart in the source
Description: Effect (1 uM) on Forskolin-Stimulated cAMP formation, in HeLa cells transfected with the 5-HT 1A receptor

[22] = molecular target: T2, 5-hydroxytryptamine receptor 1A (Homo sapiens); assay: Percent increase in the Forskolin-Stimulated cAMP formation, in HeLa cells transfected with the 5-HT 1A receptor at 1 uM concentration; type: functional, cell-based
[23] = tested on: Rattus norvegicus; assay: Effect on helpless behavior in rats and the number of escape failures was determined in shuttle-box session-3 (SB-3) at 1 mg/kg dose; type: functional
[24] = tested on: Rattus norvegicus; assay: Effect on helpless behavior in rats and the number of escape failures was determined in shuttle-box session-2 (SB-2) at 1 mg/kg dose; type: functional
[25] = tested on: Rattus norvegicus; assay: Effect on helpless behavior in rats and the number of escape failures was determined in shuttle-box session-1 (SB-1) at 1 mg/kg dose; type: functional
[26] = tested on: Mus musculus; assay: Effect on immobility time in the forced swimming test (FST) in mice at 0.01 mg/kg dose; type: functional
[27] = tested on: Mus musculus; assay: Antidepressant-like activity in the forced swimming test (FST) in mice at 0.01 mg/kg dose; Antidepressant like activity; type: functional
[28] = tested on: Mus musculus; assay: Time-dependent effect on 8-OH-DPAT-induced hypothermia (change in body temperature) after 30 min, in mice at 1 mg/kg dose; type: functional
[29] = tested on: Mus musculus; assay: Time-dependent effect on 8-OH-DPAT-induced hypothermia (change in body temperature) after 60 min, in mice at 1 mg/kg dose; type: functional
[30] = tested on: Mus musculus; assay: Time-dependent effect on 8-OH-DPAT-induced hypothermia (change in body temperature) after 15 min, in mice at 1 mg/kg dose; type: functional
[31] = tested on: Rattus norvegicus; assay: Effect on helpless behavior in rats and the number of escape failures was determined in shuttle-box session-3 (SB-3) at 10 mg/kg dose; type: functional
[32] = tested on: Rattus norvegicus; assay: Effect on helpless behavior in rats and the number of escape failures was determined in shuttle-box session-2 (SB-2) at 10 mg/kg dose; type: functional
[33] = tested on: Rattus norvegicus; assay: Effect on helpless behavior in rats and the number of escape failures was determined in shuttle-box session-1 (SB-1) at 10 mg/kg dose; type: functional
[34] = tested on: Rattus norvegicus; assay: Effect on helpless behavior in rats and the number of escape failures was determined in shuttle-box session-3 (SB-3) at 30 mg/kg dose; type: functional
[35] = tested on: Rattus norvegicus; assay: Effect on helpless behavior in rats and the number of escape failures was determined in shuttle-box session-2 (SB-2) at 30 mg/kg dose; type: functional
[36] = tested on: Rattus norvegicus; assay: Effect on helpless behavior in rats and the number of escape failures was determined in shuttle-box session-1 (SB-1) at 30 mg/kg dose; type: functional
[37] = tested on: Mus musculus; assay: Antidepressant-like activity in the forced swimming test (FST) in mice at 1 mg/kg dose; type: functional
[38] = tested on: Mus musculus; assay: Antidepressant-like activity in the forced swimming test (FST) in mice at 10 mg/kg dose; type: functional
[39] = tested on: Mus musculus; assay: Antidepressant-like activity in the forced swimming test (FST) in mice at 0.1 mg/kg dose; type: functional

Structure (SMILES): Oc1ccccc1N1CCN(CCC(O)c2ccc3ccccc3c2)CC1 (stereo unspecified)
- pKi [1]: 6.72
- pKi [2]: 6.72
- Temperature change [3]: -1.12 °C
- Temperature change [4]: -2.52 °C
- Activity [5]: 0%
- Activity [6]: 0%
- Temperature change [7]: -1.97 °C
- Immobility time [8]: 178.3 s
- Temperature change [9]: -2.41 °C
- Temperature change [10]: -2.03 °C
- Activity [11]: 93%
- Temperature change [12]: -0.93 °C
- Immobility time [13]: 24.4 s

Structure (SMILES): COc1ccccc1N1CCN(CC/C(=N\O)c2csc3ccccc23)CC1
- pKi ([1]; read-out: Ki): 7.22
- pKi ([2]; read-out: Ki): 7.02
- Temperature change [3]: -1.7 °C
- Temperature change [4]: -2.16 °C
- Activity [5]: 0%
- Activity [6]: 22%
- Temperature change [7]: -2.77 °C
- Temperature change [9]: -2.99 °C
- Immobility time [14]: 188.1 s
- Temperature change [10]: -2.18 °C
- Immobility time [15]: 150.1 s
- Activity [11]: 50%
- Temperature change [12]: -1.31 °C
- Immobility time [16]: 181.1 s
- Immobility time [13]: <102 s

Structure (SMILES): C=C[C@@]1(C)CC(=O)[C@]2(O)[C@@]3(C)[C@@H](O)CCC(C)(C)[C@@H]3[C@H](O)[C@H](OC(C)=O)[C@@]2(C)O1
- Activity [17]: 100%
- cAMP [18]: 29.7 pmol/well

Structure (SMILES): COc1ccccc1N1CCN(CC/C(=N\O)c2ccc(C)s2)CC1
- cAMP increase [19]: 33%
- pKi ([1]; read-out: Ki): 6.89
- pKi ([2]; read-out: Ki): 7.19
- Temperature change [3]: -1.11 °C
- Temperature change [4]: -2.12 °C
- Activity [5]: 0%
- Activity [6]: 51%
- cAMP [20]: 7.4 pmol/well
- Temperature change [7]: -1.41 °C
- Immobility time [8]: <79.2 s
- Temperature change [9]: -1.31 °C
- Immobility time [14]: 142.7 s
- cAMP [21]: 9.8 pmol/well
- Temperature change [10]: -2.05 °C
- Activity [11]: 13%
- cAMP increase [22]: 25%
- Temperature change [12]: -0.94 °C
- Immobility time [16]: 151.6 s
- Immobility time [13]: 126.2 s

Structure (SMILES): Fc1ccc([C@@H]2CCNC[C@H]2COc2ccc3c(c2)OCO3)cc1 [PAROXETINE]
- No. of escape failures [23]: 2.2
- No. of escape failures [24]: 3
- No. of escape failures [25]: 3.3

Structure (SMILES): Oc1ccccc1N1CCN(CCC(O)c2csc3ccccc23)CC1 (stereo unspecified)
- pKi ([1]; read-out: Ki): 7.74
- Immobility time [26]: 186.1 s
- pKi ([2]; read-out: Ki): 7.41
- Temperature change [3]: -1.38 °C
- Temperature change [4]: -2.54 °C
- Activity [5]: 40%
- Activity [6]: 0%
- Temperature change [7]: -3.17 °C
- Immobility time [8]: 183.3 s
- Temperature change [9]: -2.2 °C
- Activity [27]: 0%
- Immobility time [14]: 178 s
- Temperature change [10]: -2.01 °C
- Activity [11]: 11%
- Temperature change [12]: -1.32 °C
- Immobility time [16]: <112.5 s
- Immobility time [13]: 160.9 s

Structure (SMILES): COc1ccccc1N1CCN(CCN(C(=O)C2CCCCC2)c2ccccn2)CC1 [WAY-100,635]
- Temperature change [28]: <-0.95 °C
- Temperature change [29]: -0.35 °C
- Temperature change [30]: <-0.71 °C

Structure (SMILES): CN(C)CCC=C1c2ccccc2CCc2ccccc21 [AMITRIPTYLINE]
- No. of escape failures [31]: <1.2
- No. of escape failures [32]: <3.3
- No. of escape failures [33]: <9

Structure (SMILES): CNCCC(Oc1ccc(C(F)(F)F)cc1)c1ccccc1 (stereo unspecified) [FLUOXETINE]
- No. of escape failures [34]: <3.2
- No. of escape failures [35]: <4
- No. of escape failures [36]: 13

Structure (SMILES): COc1ccccc1N1CCN(CCC(O)c2cc(C)sc2C)CC1 (stereo unspecified)
- pKi [1]: 7.92
- pKi ([2]; read-out: Ki): 6.94
- Temperature change [3]: -1.21 °C
- Temperature change [4]: -2.53 °C
- Temperature change [7]: -2.01 °C
- Immobility time [8]: 111 s
- Activity [37]: 13%
- Temperature change [9]: -1.86 °C
- Immobility time [14]: 124.3 s
- Temperature change [10]: -2.13 °C
- Temperature change [12]: -1.26 °C
- Activity [38]: 20%
- Immobility time [13]: 103 s

Structure (SMILES): COc1ccccc1N1CCN(CCC(=O)c2ccsc2)CC1
- pKi ([1]; read-out: Ki): 7.80
- pKi ([2]; read-out: Ki): 6.95
- Temperature change [3]: -1.48 °C
- Temperature change [4]: -2.52 °C
- Temperature change [7]: -2.76 °C
- Immobility time [8]: <118.8 s
- Activity [37]: 34%
- Temperature change [9]: -2.18 °C
- Activity [39]: 0%
- Immobility time [14]: 170.1 s
- Temperature change [10]: -2.04 °C
- Temperature change [12]: -1.88 °C
- Immobility time [16]: 169.5 s
- Activity [38]: 83%
- Immobility time [13]: <44.9 s
